Laboratory results taken from ChEMBL document CHEMBL3045961, “Synthesis and evaluation of some pyrimidine analogs against toxoplasmosis” (Med Chem Res, 2008).
Calls of active or inactive are those of the source. No cut-off for these calls is given here.

Experiments:
[1] = target: T1, Bifunctional dihydrofolate reductase-thymidylate synthase (Cryptosporidium parvum) (UniProt Q27552); test: Ratio of trimethorpin IC50 to compound IC50 for Cryptosporidium parvum recombinant DHFR
T1 sequence (whole entry): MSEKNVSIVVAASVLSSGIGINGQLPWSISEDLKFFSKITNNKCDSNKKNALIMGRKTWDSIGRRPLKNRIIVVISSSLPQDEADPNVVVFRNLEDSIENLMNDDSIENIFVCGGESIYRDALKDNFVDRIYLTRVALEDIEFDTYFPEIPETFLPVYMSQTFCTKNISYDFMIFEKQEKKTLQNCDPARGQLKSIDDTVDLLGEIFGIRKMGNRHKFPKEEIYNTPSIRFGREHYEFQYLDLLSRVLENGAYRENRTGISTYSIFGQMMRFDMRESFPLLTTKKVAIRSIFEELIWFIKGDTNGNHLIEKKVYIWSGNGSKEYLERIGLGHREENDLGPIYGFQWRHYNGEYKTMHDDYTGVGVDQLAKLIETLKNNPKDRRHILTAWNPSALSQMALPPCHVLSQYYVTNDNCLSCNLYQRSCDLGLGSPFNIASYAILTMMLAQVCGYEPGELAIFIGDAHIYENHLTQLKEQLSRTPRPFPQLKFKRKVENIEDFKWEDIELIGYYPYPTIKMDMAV

[2] = target: T2, Dihydrofolate reductase (Homo sapiens, UniProt P00374); test: Inhibition of Homo sapiens (human) dihydrofolate reductase using dihydrofolate as substrate incubated for 5 min prior to substrate addition by spectrophotometric assay
T2 sequence (P00374 whole entry): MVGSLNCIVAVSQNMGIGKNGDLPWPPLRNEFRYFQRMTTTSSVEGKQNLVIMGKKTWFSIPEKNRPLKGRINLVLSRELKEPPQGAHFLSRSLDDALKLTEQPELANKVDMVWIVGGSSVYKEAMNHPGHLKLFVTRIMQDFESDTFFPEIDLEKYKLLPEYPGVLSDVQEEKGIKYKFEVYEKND

[3] = target: T3, Bifunctional dihydrofolate reductase-thymidylate synthase (Cryptosporidium parvum, UniProt Q27552); test: Inhibition of Cryptosporidium parvum recombinant DHFR using dihydrofolate as substrate incubated for 5 min prior to substrate addition by spectrophotometric assay
T3 sequence (Q27552 whole entry): T1 sequence (whole entry)

[4] = system: Toxoplasma gondii; test: Antiparasitic activity Toxoplasma gondii RH infected Swiss albino mouse assessed as decrease in interstitial pneumonia at 0.25 mg, po administered 48 hr post-infection measured after 3 days by haematoxylin and eosin staining relative to control; type: functional, organism-based
[5] = system: Toxoplasma gondii; test: Antiparasitic activity Toxoplasma gondii RH infected Swiss albino mouse assessed as decrease in host lung congestion at 0.25 mg, po administered 48 hr post-infection measured after 3 days by haematoxylin and eosin staining relative to control; type: functional, organism-based
[6] = system: Toxoplasma gondii; test: Antiparasitic activity Toxoplasma gondii RH infected Swiss albino mouse assessed as megakaryocytes in host spleen at 0.25 mg, po administered 48 hr post-infection measured after 3 days by haematoxylin and eosin staining relative to control; type: functional, organism-based
[7] = system: Toxoplasma gondii; test: Antiparasitic activity Toxoplasma gondii RH infected Swiss albino mouse assessed as extramedullary hematopoiesis in host spleen at 0.25 mg, po administered 48 hr post-infection measured after 3 days by haematoxylin and eosin staining relative to control; type: functional, organism-based
[8] = system: Toxoplasma gondii; test: Antiparasitic activity Toxoplasma gondii RH infected Swiss albino mouse assessed as epethelioid granuloma in host spleen at 0.25 mg, po administered 48 hr post-infection measured after 3 days by haematoxylin and eosin staining relative to control; type: functional, organism-based
[9] = system: Toxoplasma gondii; test: Antiparasitic activity Toxoplasma gondii RH infected Swiss albino mouse assessed as increase in host spleen red pulp at 0.25 mg, po administered 48 hr post-infection measured after 3 days by haematoxylin and eosin staining relative to control; type: functional, organism-based
[10] = system: Toxoplasma gondii; test: Antiparasitic activity Toxoplasma gondii RH infected Swiss albino mouse assessed as decrease in host spleen white pulp at 0.25 mg, po administered 48 hr post-infection measured after 3 days by haematoxylin and eosin staining relative to control; type: functional, organism-based
[11] = system: Toxoplasma gondii; test: Antiparasitic activity Toxoplasma gondii RH infected Swiss albino mouse assessed as decrease in host spleen necrosis at 0.25 mg, po administered 48 hr post-infection measured after 3 days by haematoxylin and eosin staining relative to control; type: functional, organism-based
[12] = system: Toxoplasma gondii; test: Antiparasitic activity Toxoplasma gondii RH infected Swiss albino mouse assessed as clear lymphocytes in host liver focal granuloma at 0.25 mg, po administered 48 hr post-infection measured after 3 days by haematoxylin and eosin staining relative to control; type: functional, organism-based
[13] = system: Toxoplasma gondii; test: Antiparasitic activity Toxoplasma gondii RH infected Swiss albino mouse assessed as clear mononuclear cells in host liver focal granuloma at 0.25 mg, po administered 48 hr post-infection measured after 3 days by haematoxylin and eosin staining relative to control; type: functional, organism-based
[14] = system: Toxoplasma gondii; test: Antiparasitic activity Toxoplasma gondii RH infected Swiss albino mouse assessed as decrease in host liver necrosis at 0.25 mg, po administered 48 hr post-infection measured after 3 days by haematoxylin and eosin staining relative to control; type: functional, organism-based
[15] = system: Toxoplasma gondii; test: Antiparasitic activity Toxoplasma gondii RH infected Swiss albino mouse assessed as multiple deep ridged parasite surface in host peritoneal exudate at 0.25 mg, po administered 48 hr post-infection measured after 3 days by scanning electron microscopic analysis; type: functional, organism-based
[16] = system: Toxoplasma gondii; test: Antiparasitic activity Toxoplasma gondii RH infected Swiss albino mouse assessed as parasite deformity in host peritoneal exudate at 0.25 mg, po administered 48 hr post-infection measured after 3 days by light microscopic analysis; type: functional, organism-based
[17] = system: Toxoplasma gondii; test: Antiparasitic activity Toxoplasma gondii RH infected Swiss albino mouse assessed as decreased parasite movement in host peritoneal exudate at 0.25 mg, po administered 48 hr post-infection measured after 3 days by light microscopic analysis; type: functional, organism-based
[18] = system: Toxoplasma gondii; test: Antiparasitic activity Toxoplasma gondii RH infected Swiss albino mouse assessed as decrease in Toxoplasma antigen in host serum at 0.25 mg, po administered 48 hr post-infection measured after 3 days by Co-A test relative to control; type: functional, organism-based
[19] = system: Toxoplasma gondii; test: Antiparasitic activity against Toxoplasma gondii RH infected Swiss albino mouse assessed as decrease in tachozyte count in spleen at 0.25 mg, po administered 48 hr post-infection measured after 3 days by Geimsa staining relative to control; type: functional, organism-based
[20] = system: Toxoplasma gondii; test: Antiparasitic activity against Toxoplasma gondii RH infected Swiss albino mouse assessed as decrease in tachozyte count in liver at 0.25 mg, po administered 48 hr post-infection measured after 3 days by Geimsa staining relative to control; type: functional, organism-based
[21] = system: Toxoplasma gondii; test: Antiparasitic activity Toxoplasma gondii RH infected Swiss albino mouse assessed as parasite dimpled conoid in host peritoneal exudate at 0.25 mg, po administered 48 hr post-infection measured after 3 days by scanning electron microscopic analysis; type: functional, organism-based
[22] = system: Toxoplasma gondii; test: Antiparasitic activity Toxoplasma gondii RH infected Swiss albino mouse assessed as disorganised parasite conoid in host peritoneal exudate at 0.25 mg, po administered 48 hr post-infection measured after 3 days by scanning electron microscopic analysis; type: functional, organism-based
[23] = system: Toxoplasma gondii; test: Antiparasitic activity Toxoplasma gondii RH infected Swiss albino mouse assessed as loss of parasite crescent shape in host peritoneal exudate at 0.25 mg, po administered 48 hr post-infection measured after 3 days by scanning electron microscopic analysis; type: functional, organism-based
[24] = system: Toxoplasma gondii; test: Antiparasitic activity Toxoplasma gondii RH infected Swiss albino mouse assessed as homogenous tachyzoites in host peritoneal exudate at 0.25 mg, po administered 48 hr post-infection measured after 3 days by scanning electron microscopic analysis; type: functional, organism-based
[25] = system: Toxoplasma gondii; test: Antiparasitic activity Toxoplasma gondii RH infected Swiss albino mouse assessed as smooth tachyzoites in host peritoneal exudate at 0.25 mg, po administered 48 hr post-infection measured after 3 days by scanning electron microscopic analysis; type: functional, organism-based
[26] = system: Toxoplasma gondii; test: Antiparasitic activity Toxoplasma gondii RH infected Swiss albino mouse assessed as dimpled parasite surface in host peritoneal exudate at 0.25 mg, po administered 48 hr post-infection measured after 3 days by scanning electron microscopic analysis; type: functional, organism-based
[27] = system: Toxoplasma gondii; test: Antiparasitic activity Toxoplasma gondii RH infected Swiss albino mouse assessed as deep ridged parasite surface in host peritoneal exudate at 0.25 mg, po administered 48 hr post-infection measured after 3 days by scanning electron microscopic analysis; type: functional, organism-based
[28] = system: Toxoplasma gondii; test: Antiparasitic activity Toxoplasma gondii RH infected Swiss albino mouse assessed as decrease in tachyzoites end tapering in host peritoneal exudate at 0.25 mg, po administered 48 hr post-infection measured after 3 days by scanning electron microscopic analysis; type: functional, organism-based
[29] = system: Toxoplasma gondii; test: Antiparasitic activity Toxoplasma gondii RH infected Swiss albino mouse assessed as elongated tachyzoites in host peritoneal exudate at 0.25 mg, po administered 48 hr post-infection measured after 3 days by scanning electron microscopic analysis; type: functional, organism-based

| SMILES | Ratio IC50 [1] | IC50 [2] [nM] | IC50 [3] [nM] | Activity [4] | Activity [5] | Activity [6] | Activity [7] | Activity [8] | Activity [9] | Activity [10] | Activity [11] | Activity [12] | Activity [13] | Activity [14] | Activity [16] | Activity [17] | Activity [18] | Activity [19] | Activity [20] | Activity [22] | further results |
| --- | --- | --- | --- | --- | --- | --- | --- | --- | --- | --- | --- | --- | --- | --- | --- | --- | --- | --- | --- | --- | --- |
| CCOC(=O)C1=C(C)NC(S/C(=C\c2ccc(OC)cc2)C(=O)OCC)=NC1c1ccccc1 (stereo unspecified) | 40 | 10 | 38 | Active | inactive | Active | Active | inactive | Active | Active | Active | Active | Active | Active | Active | Active | Active | Active | Active |  | Activity [15]: Active |
| CC(=O)C1=C(C)N=C(SCCC(=O)O)NC1c1cccc(O)c1 (stereo unspecified) | 40 | 94 | 65 | Active | inactive | inactive | inactive | inactive | Active | Active | Active | Active | Active | Active | Active | Active | Active | Active | Active |  | Activity [24]: Active; Activity [25]: Active; Activity [26]: Active; Activity [27]: Active |
| CCOC(=O)C1=C(C)NC(=S)NC1/C=C\c1ccccc1 (stereo unspecified) |  | 2900 | 2100 | inactive | inactive | inactive | inactive | inactive | inactive | inactive | inactive | inactive | inactive | inactive | inactive | inactive | inactive | inactive | inactive |  |  |

The remaining compounds from weak to strong by IC50 [2], led by results:

| Ratio IC50 [1] | IC50 [2] [nM] | IC50 [3] [nM] | SMILES | Activity [4] | Activity [5] | Activity [6] | Activity [7] | Activity [8] | Activity [9] | Activity [10] | Activity [11] | Activity [12] | Activity [13] | Activity [14] | Activity [16] | Activity [17] | Activity [18] | Activity [19] | Activity [20] | Activity [22] | further results |
| --- | --- | --- | --- | --- | --- | --- | --- | --- | --- | --- | --- | --- | --- | --- | --- | --- | --- | --- | --- | --- | --- |
| 40 | 8.9 | 75 | CCOC(=O)C1=C(C)N=C(SCCC(=O)O)NC1c1ccccc1OC (stereo unspecified) | Active | inactive | inactive | inactive | inactive | Active | Active | Active | Active | Active | Active | Active | Active | Active | Active | Active | Active | Activity [21]: Active; Activity [23]: Active |
| 40 | 1.3 | 27 | CC(=O)C1=C(C)N=C(SCCC(=O)O)NC1c1ccccc1 (stereo unspecified) | Active | inactive | inactive | inactive | Active | Active | Active | Active | Active | Active | Active | Active | Active | Active | Active | Active | Active | Activity [28]: Active; Activity [29]: Active; Activity [23]: Active |
